121 compounds from a melting point compilation (Tetko et al.) can be followed below.

Regarding `Cc1ccc(C(=O)c2c(N)sc3c2CCC3)cc1F`, the melting point lay within 177 to 179 °C.
As for `Nc1nccc(-c2cccnc2)n1`, the melting point is 188 to 190 °C.
`NCc1ccccc1CS(=O)(=O)N1CCOCC1` returned a melting point of 90 to 92 °C.
Compound `CC1C=CC2C(=O)N(CC(F)(F)F)C(=O)C2C1C(=O)O` (stereo unspecified) registered a melting point of 166 to 168 °C.
The compound `COc1ccccc1-n1cnnc1S` yielded a melting point of 204 to 206 °C.
The figure for `Cc1cc(S(N)(=O)=O)cc(N)c1C` is 159 to 161 °C; for `NCC1(C(N)=O)CCCC1` it is 61 to 63 °C.
`O=C1CSC(=S)N1c1ccc(F)cc1` returned a melting point of 137 to 139 °C.
Consider `Cc1cc(F)ccc1N1CCCC(Br)C1=O` (stereo unspecified), for which the melting point was 94 to 96 °C.
The figure for `O=C(Nc1ccccn1)C1CCNCC1` is 113 to 115 °C; for `O=C(CCCc1ccc(Br)cc1)c1ccccc1` it is 84 to 86 °C; for `NNc1ccc(S(=O)(=O)Nc2ccccc2)cc1[N+](=O)[O-]` it is 207 to 209 °C.
`O=C1CNC2CCCCC2N1` (stereo unspecified): the melting point fell in the range of 121 to 123 °C.
The figure for `CCc1cc(Cl)nc(-c2ccccn2)n1` is 79 to 81 °C.
Regarding `Cc1ccc(-c2ccc(O)cc2)cc1`, the melting point was 155 to 157 °C.
For the compound `CCC(C)(NC(=O)c1ccccc1)C(N)=S` (stereo unspecified), the melting point lay within 162 to 164 °C.
Take `Cc1c(Cl)cccc1-n1ccnc1SCC(=O)O`: the melting point was 144 to 146 °C.
As for `Cc1ccc(C(=O)COc2ccc(C=O)cc2)cc1C`, the figure is 65 to 67 °C; as for `CC1C=CC2C(=O)N(C)C(=O)C2C1C(=O)O` (stereo unspecified), 172 to 174 °C.
`c1nnc(C2CCNCC2)[nH]1`: the melting point lay within 208 to 210 °C.
The figure for `Cc1cc(-c2nc3cc(F)ccc3n2C)ccc1N` is 174 to 176 °C; for `O=C(O)CCCn1nnc(-c2ccccc2)n1` it is 83 to 85 °C; for `Cc1ccc(-c2nc(C)c(C(C)O)s2)cc1` (stereo unspecified) it is 111 to 113 °C.
Regarding `CCn1c(=O)[nH]c2cc(C(=O)O)ccc2c1=O`, the melting point was in the range of 347 to 349 °C.
`CN(C)S(=O)(=O)c1ccc(-c2csc(N)n2)cc1` registered a melting point of 243 to 245 °C.
The compound `Nc1ccccc1Cn1cccn1` gave a melting point of 56 to 58 °C.
As for `O=C(Nc1sccc1C(=O)O)c1ccc2c(c1)CCC2`, the figure is 214 to 216 °C; as for `N#Cc1ccc(-c2cccs2)[nH]c1=O`, 301 to 303 °C; as for `CC(C)C(=O)c1ccc(S(=O)(=O)Cl)cc1`, 64 to 66 °C.
Take `Fc1ccc(-c2cnc(CBr)o2)cc1`: the melting point fell in the range of 30 to 41 °C.
The figure for `Cc1cc(C#N)ccc1Oc1ccc(C(=O)O)cc1` is 212 to 214 °C; for `O=C(c1cc(S(=O)(=O)Cl)c[nH]1)N1CCCC1` it is 191 to 193 °C; for `O=C(CCl)c1ccc(F)c(Cl)c1` it is 37 to 39 °C.
`COc1cc(NC(C)=O)ccc1I` had a melting point of 138 to 140 °C.
`CCCNc1ccc(CN2CCN(C)CC2)cn1` came in with a melting point of 69 to 71 °C.
In turn, `FC(F)(F)c1cccc(-c2ncc[nH]2)c1` gave a melting point of 151 to 153 °C.
Compound `CC(C)(C)OC(=O)NC(COS(C)(=O)=O)COS(C)(=O)=O` registered a melting point of 96 to 98 °C.
For `O=Cc1csc(-c2ccc(Cl)cc2)n1`, the melting point was in the range of 124 to 126 °C.
As for `ON=Cc1ccc(OCc2cccnc2)cc1`, the figure is 187 to 189 °C; as for `C#CCNC(C)=O`, 79 to 81 °C.
As for `O=C(O)CCOc1ccccc1Br`, the figure is 111 to 113 °C; as for `CC(=O)c1cccc(S(=O)(=O)N2CCC(C(=O)O)CC2)c1`, 122 to 124 °C.
Consider `Cc1cncc(C=CC(=O)O)c1`, for which the melting point was in the range of 209 to 211 °C.
As for `O=C(O)c1cc(S(=O)(=O)N2CCOCC2)ccc1Cl`, the figure is 183 to 185 °C; as for `CCCc1cc(Cl)n2nc(C(=O)OC)nc2n1`, 117 to 119 °C; as for `Cc1nc[nH]c1C`, 103 to 105 °C.
Consider `CSCCC(NC(=O)COc1ccccc1)C(=O)O` (stereo unspecified), for which the melting point was 122 to 130 °C.
The figure for `Cn1cnc2cc(C(=O)O)ccc21` is 313 to 315 °C; for `CCC(C)NS(=O)(=O)c1cccc(N)c1` (stereo unspecified) it is 89 to 91 °C.
Compound `O=C(O)c1ccc(OCc2ccccc2)nc1` registered a melting point of 168 to 170 °C.
As for `CCN(CC)C(=O)Nc1ccc(C(C)=O)cc1`, the melting point was in the range of 113 to 115 °C.
On to `N#CCC(=O)Nc1ccccc1Cl`, for which the melting point fell in the range of 124 to 126 °C.
The figure for `CC(C)(C)OC(=O)Nc1cc2c(cc1N)OCCO2` is 119 to 121 °C; for `O=C(O)CNC(=O)c1ccc(F)cc1F` it is 139 to 141 °C; for `N#Cc1cccc(Cn2ccnc2)c1` it is 65 to 67 °C.
The figure for `Nc1cccc(N2CCOC2=O)c1` is 152 to 154 °C; for `O=C1CCC2(C(=O)O)Sc3ccccc3N12` (stereo unspecified) it is 225 to 227 °C; for `CC(C)(C)c1ccc(Oc2ccc(C=O)cc2[N+](=O)[O-])cc1` it is 156 to 158 °C.
Consider `O=C(O)C1COc2ccccc21` (stereo unspecified), for which the melting point lay in the range of 101 to 103 °C.
The figure for `COCC(=O)c1ccc(F)c(F)c1` is 39 to 41 °C; for `O=C(O)c1ccccc1COc1ccccc1` it is 126 to 128 °C; for `Nc1nnc(-c2cccc(Cl)c2)[nH]1` it is 219 to 221 °C.
In the case of `Cc1csc(NC2CC2)n1`, the melting point lay within 64 to 66 °C.
`COC(=O)c1c(S)nc2ccccc2c1O` showed a melting point of 179 to 181 °C.
On to `Cc1cc(N2CCCC(N)C2=O)n(C)n1` (stereo unspecified), for which the melting point lay in the range of 88 to 90 °C.
As for `CCn1ncc2ccc(N)cc21`, the figure is 117 to 119 °C; as for `NNC(=O)c1cc2c(s1)CCCCC2`, 253 to 255 °C; as for `CC(O)C(NS(=O)(=O)c1cccs1)C(=O)O` (stereo unspecified), 183 to 185 °C.
The figure for `CCOC(=O)c1cnc2c(OC)cc(Cl)c(OC)c2c1Cl` is 152 to 154 °C; for `Nc1nc(-c2ccccc2)c(-c2ncc[nH]2)s1` it is 256 to 258 °C; for `O=C1CN(C(=O)CCl)c2ccccc2N1` it is 114 to 119 °C.
Compound `O=C(O)CCCn1c(=O)oc2ccccc21` registered a melting point of 141 to 143 °C.
In the case of `FC(F)Oc1ccc(-c2nnc(S)o2)cc1`, the melting point was 121 to 123 °C.
`CN1CCN(c2ccnc(C#N)c2)CC1` displayed a melting point of 114 to 116 °C.
As for `CC(=O)c1cccc(NS(C)(=O)=O)c1`, the figure is 91 to 93 °C; as for `COc1cc(-c2nnc(CCl)o2)cc(OC)c1OC`, 121 to 123 °C.
As for `COC(=O)c1ccc2[nH]cc(C3CCNCC3)c2c1`, the figure is 169 to 171 °C.
`O=C(c1ccc(Cl)cc1)c1ncccn1` returned a melting point of 91 to 93 °C.
`Cc1ccc2c(c1)C(=O)C(=O)N2`: the melting point fell in the range of 180 to 184 °C.
As for `O=C(O)c1ccccc1OCc1ccc(Cl)cc1Cl`, the melting point lay within 162 to 164 °C.
`Nc1cccc(I)c1C(=O)O` gave a melting point of 130 to 132 °C.
For `O=[N+]([O-])c1cc2c(cc1Br)OCCO2`, the melting point lay in the range of 167 to 169 °C.
Regarding `NC1(c2ccc(Br)cc2)CCOCC1`, the melting point lay in the range of 85 to 87 °C.
As for `CC1(CCc2ccc(O)cc2)NC(=O)NC1=O` (stereo unspecified), the melting point lay within 192 to 194 °C.
Compound `N#CC1CSCCN1` (stereo unspecified) registered a melting point of 81 to 83 °C.
Consider `CC1(C)NC(=O)N=C1N`, for which the melting point is 259 to 261 °C.
The figure for `O=C(O)C1CC(=O)N(c2ccc(Cl)c(F)c2)C1` (stereo unspecified) is 149 to 151 °C.
The figure for `O=C(O)c1cccc(S(=O)(=O)NCc2cccnc2)c1` is 231 to 233 °C; for `O=c1[nH]cnc2ccsc12` it is 219 to 221 °C.
The figure for `CN1C(=O)/C(=N\NC(=O)c2cccnc2)c2ccccc21` is 195 to 197 °C; for `COc1ccc(NC(=O)c2ccc(C(=O)O)s2)cc1` it is 247 to 249 °C; for `CCOC(OCC)c1nnc[nH]1` it is 59 to 61 °C.
As to `NS(=O)(=O)c1cc(F)cc([N+](=O)[O-])c1`, the melting point lay in the range of 184 to 186 °C.
The figure for `O=C(O)c1c(Cl)ccc(S(=O)(=O)Cl)c1Cl` is 168 to 170 °C; for `O=[N+]([O-])c1cnn(CC2CO2)c1` (stereo unspecified) it is 68 to 70 °C; for `O=C(O)C1CCCn2c1n[nH]c2=O` (stereo unspecified) it is 121 to 123 °C.
For `O=C(O)c1ccc(S(=O)(=O)N2CCCC2)cc1`, the melting point lay in the range of 243 to 245 °C.
Consider `c1cc(C2CCCNC2)[nH]n1` (stereo unspecified), for which the melting point was 74 to 76 °C.
On to `CC(=O)c1ccc(OCC(=O)N2CCCC2)cc1`, for which the melting point was in the range of 122 to 124 °C.
The figure for `COCCNC(=O)NC(=O)CCl` is 103 to 105 °C; for `O=S1(=O)CC(O)C(NCc2ccco2)C1` (stereo unspecified) it is 139 to 141 °C; for `Cn1cnnc1CO` it is 49 to 51 °C.
As for `CC(=O)N(C)CCC(N)=S`, the figure is 109 to 111 °C.
The figure for `COc1cccc(CNC(N)=O)c1` is 111 to 113 °C; for `O=C(CCl)Nc1ccc(NC(=O)c2cccs2)cc1` it is 243 to 245 °C; for `NC1(C(=O)O)CCOCC1` it is 268 to 270 °C.
Compound `O=Cc1ccc(-c2nn(-c3ccccc3)cc2C=O)o1` returned a melting point of 146 to 148 °C.
As for `N#C/C=C/c1ccc(Cl)cc1`, the figure is 45 to 47 °C.
As for `O=C(Nc1ccc(C(=O)O)c(O)c1)c1cccc(Br)c1`, the figure is 239 to 241 °C.
`ClCc1nnc(-c2cccc(Br)c2)o1`: the melting point lay within 74 to 76 °C.
The compound `O=c1c2ccc(C(F)(F)F)cc2nc2n1CCC2` yielded a melting point of 156 to 158 °C.
`N#CCc1ccc(F)c(Br)c1` displayed a melting point of 35 to 37 °C.
`Cc1nccn1-c1ccc(N)cc1F`: the melting point was 84 to 86 °C.
In turn, `O=C(O)c1cc(S(=O)(=O)Nc2ccccc2F)c[nH]1` yielded a melting point of 207 to 209 °C.
As for `C=CS(=O)(=O)c1ccc([N+](=O)[O-])cc1`, the figure is 112 to 114 °C.
`CC1CCN(C(=O)c2cccnc2Cl)CC1` returned a melting point of 96 to 98 °C.
As for `NS(=O)(=O)c1cc(Cl)ccc1Cl`, the figure is 179 to 181 °C; as for `NS(=O)(=O)CC1CCCN1` (stereo unspecified), 72 to 74 °C; as for `O=c1ccc(S(=O)(=O)c2ccccc2)n[nH]1`, 182 to 184 °C.
The figure for `COC(=O)Cn1ncc2c(Cl)ncnc21` is 66 to 68 °C; for `CC(C)CC1(C)NC(=O)NC1=O` (stereo unspecified) it is 145 to 147 °C.

What is called melting point is the temperature, or range, at which the solid turns liquid.
